Assay: Evaluation of solubility in organic solvents (visual observation of complete dissolution)
Assay type: physicochemical
Procedure: [Evaluation of Solubility]
The evaluation of the solubility of the synthesized compound was conducted by the following method.
About 2-3 mg of the compound was precisely weighed, and each solvent was added to the compound such that a predetermined concentration of the solute (0.5 wt %, 0.3 wt %, 0.2 wt %, 0.1 wt %, 0.05 wt %, or 0.03 wt %) was reached. The resultant mixture was stirred for 30 minutes at a predetermined temperature, and then it was evaluated by visual appearance observation whether or not the solute (synthesized compound) was completely dissolved in the solvent, which was the result of the evaluation of the solubility. As the solvent, chloroform (boiling point 61° C.), toluene (boiling point 111° C.), xylene (boiling point 144° C.), mesitylene (boiling point 165° C.), chlorobenzene (boiling point 130° C.), para-chlorotoluene (boiling point 162° C.), and ortho-dichlorobenzene (boiling point 181° C.) were used.

[1] = chloroform, 25° C. (room temperature)

FC(F)(F)c1cc(-c2ccc(-c3c4c(c(-c5ccc(-c6cc(C(F)(F)F)cc(C(F)(F)F)c6)s5)c5nsnc35)N=S=N4)s2)cc(C(F)(F)F)c1 [Compound (C3), 4,8-bis[5-(3,5-bis(trifluoromethyl)phenyl)thiophene-2-yl]benzo[1,2-c:4,5-c′]bis[1,2,5]thiadiazole]
solubility (solute concentration completely dissolved) (chlorobenzene, 130° C.): ≥ 0.1 wt %
solubility (solute concentration completely dissolved) (mesitylene, 130° C.): ≥ 0.1 wt %
solubility (solute concentration completely dissolved) (ortho-dichlorobenzene, 100° C.): ≥ 0.1 wt %

CCCCCCCCCCCCCCCCCCc1cc(-c2ccc(-c3c4c(c(-c5ccc(-c6ccc(C#N)c(CCCCCCCCCCCCCCCCCC)c6)s5)c5nsnc35)N=S=N4)s2)ccc1C#N [Compound (C20), 4,8-bis[5-(4-cyano-3-octadecylphenyl)thiophene-2-yl]benzo[1,2-c:4,5-c′]bis[1,2,5]thiadiazole]
solubility (solute concentration completely dissolved) (1-methylnaphthalene, 100° C.): ≥ 0.3 wt %
solubility (solute concentration completely dissolved) (chlorobenzene, 100° C.): ≥ 0.3 wt %
solubility (solute concentration completely dissolved) (chloroform, 60° C.): ≥ 0.1 wt %
solubility (solute concentration completely dissolved) (ortho-dichlorobenzene, 80° C.): ≥ 0.3 wt %

CCCC(C)CCc1cc(-c2ccc(-c3c4c(c(-c5ccc(-c6ccc(C#N)c(CCC(C)CCC)c6)s5)c5nsnc35)N=S=N4)s2)ccc1C#N (centres unmarked) [Compound (C21), 4,8-bis[5-(4-cyano-3-(3-methylhexyl)phenyl)thiophene-2-yl]benzo[1,2-c:4,5-c′]bis[1,2,5]thiadiazole]
solubility (solute concentration completely dissolved) (1-methylnaphthalene, 80° C.): ≥ 0.3 wt %
solubility (solute concentration completely dissolved) (chlorobenzene, 80° C.): ≥ 0.3 wt %
solubility (solute concentration completely dissolved) (chloroform, 60° C.): ≥ 0.2 wt %
solubility (solute concentration completely dissolved) (ortho-dichlorobenzene, 80° C.): ≥ 0.3 wt %

CCCCC(CC)Cc1cc(-c2ccc(-c3c4c(c(-c5ccc(-c6ccc(C(F)(F)F)c(CC(CC)CCCC)c6)s5)c5nsnc35)N=S=N4)s2)ccc1C(F)(F)F (centres unmarked) [Compound (C30)]
solubility (solute concentration completely dissolved) (1-methylnaphthalene, 60° C.): ≥ 0.3 wt %
solubility (solute concentration completely dissolved) (chloroform, 60° C.): ≥ 0.2 wt %
solubility (solute concentration completely dissolved) (mesitylene, 80° C.): ≥ 0.3 wt %
solubility (solute concentration completely dissolved) (ortho-dichlorobenzene, 80° C.): ≥ 0.3 wt %
solubility (solute concentration completely dissolved) (toluene, 80° C.): ≥ 0.3 wt %

FC(F)(F)c1ccccc1-c1ccc(-c2c3c(c(-c4ccc(-c5ccccc5C(F)(F)F)s4)c4nsnc24)N=S=N3)s1 [Compound (RR2), 4,8-bis[5-(2-(trifluoromethyl)phenyl)thiophene-2-yl]benzo[1,2-c:4,5-c′]bis[1,2,5]thiadiazole, reference compound]
solubility (solute concentration completely dissolved) (chlorobenzene, 25° C.): ≥ 0.1 wt %
solubility (solute concentration completely dissolved) (mesitylene, 25° C.): ≥ 0.1 wt %
solubility (solute concentration completely dissolved) (ortho-dichlorobenzene, 25° C.): ≥ 0.1 wt %
solubility (solute concentration completely dissolved) (toluene, 25° C.): ≥ 0.1 wt %

CCCCCCCCCCC(F)(F)c1ccc(-c2ccc(-c3c4c(c(-c5ccc(-c6ccc(C(F)(F)CCCCCCCCCC)cc6)s5)c5nsnc35)N=S=N4)s2)cc1 [Compound (RC3), 4,8-bis[5-(4-(1,1-difluoroundecyl)phenyl)thiophene-2-yl]benzo[1,2-c:4,5-c′]bis[1,2,5]thiadiazole, reference compound]
solubility (solute concentration completely dissolved) (chlorobenzene, 60° C.): < 0.03 wt %
solubility (solute concentration completely dissolved) (mesitylene, 60° C.): < 0.03 wt %
solubility (solute concentration completely dissolved) (toluene, 60° C.): < 0.03 wt %

CCCCCCCCCCCCCCCCc1cc(-c2ccc(-c3c4c(c(-c5ccc(-c6ccc(C#N)c(CCCCCCCCCCCCCCCC)c6)s5)c5nsnc35)N=S=N4)s2)ccc1C#N [Compound (C19), 4,8-bis[5-(4-cyano-3-hexadecylphenyl)thiophene-2-yl]benzo[1,2-c:4,5-c′]bis[1,2,5]thiadiazole]
solubility (solute concentration completely dissolved) (1-methylnaphthalene, 25° C. (room temperature)): ≥ 0.3 wt %
solubility (solute concentration completely dissolved) (chlorobenzene, 80° C.): ≥ 0.3 wt %
solubility (solute concentration completely dissolved) (chloroform, 60° C.): ≥ 0.2 wt %
solubility (solute concentration completely dissolved) (ortho-dichlorobenzene, 80° C.): ≥ 0.3 wt %

CCCCCCCc1cc(-c2ccc(-c3c4c(c(-c5ccc(-c6ccc(C#N)c(CCCCCCC)c6)s5)c5nsnc35)N=S=N4)s2)ccc1C#N [Compound (C13), 4,8-bis[5-(4-cyano-3-heptylphenyl)thiophene-2-yl]benzo[1,2-c:4,5-c′]bis[1,2,5]thiadiazole]
solubility (solute concentration completely dissolved) (chlorobenzene, 80° C.): ≥ 0.3 wt %
solubility (solute concentration completely dissolved) [1]: ≥ 0.2 wt %
solubility (solute concentration completely dissolved) (ortho-dichlorobenzene, 80° C.): ≥ 0.3 wt %
solubility (solute concentration completely dissolved) (para-chlorotoluene, 80° C.): ≥ 0.3 wt %

FC(F)(F)c1ccc(-c2ccc(-c3c4c(c(-c5ccc(-c6ccc(C(F)(F)F)cc6)s5)c5nsnc35)N=S=N4)s2)cc1 [Compound (RC2), 4,8-bis[5-(4-(trifluoromethyl)phenyl)thiophene-2-yl]benzo[1,2-c:4,5-c′]bis[1,2,5]thiadiazole, reference compound]
solubility (solute concentration completely dissolved) (chlorobenzene, 100° C.): < 0.03 wt %
solubility (solute concentration completely dissolved) (mesitylene, 100° C.): < 0.03 wt %
solubility (solute concentration completely dissolved) (mesitylene, 130° C.): < 0.3 wt %
solubility (solute concentration completely dissolved) (ortho-dichlorobenzene, 100° C.): < 0.03 wt %
solubility (solute concentration completely dissolved) (toluene, 100° C.): < 0.03 wt %

CCCCCCCCCCC(F)(F)c1cccc(-c2ccc(-c3c4c(c(-c5ccc(-c6cccc(C(F)(F)CCCCCCCCCC)c6)s5)c5nsnc35)N=S=N4)s2)c1 [Compound (C4), 4,8-bis[5-(3-(1,1-difluoroundecyl)phenyl)thiophene-2-yl]benzo[1,2-c:4,5-c′]bis[1,2,5]thiadiazole]
solubility (solute concentration completely dissolved) (chlorobenzene, 25° C.): ≥ 0.03 wt %
solubility (solute concentration completely dissolved) (mesitylene, 25° C.): ≥ 0.03 wt %
solubility (solute concentration completely dissolved) (mesitylene, 60° C.): ≥ 0.1 wt %
solubility (solute concentration completely dissolved) (mesitylene, 100° C.): ≥ 0.5 wt %
solubility (solute concentration completely dissolved) (ortho-dichlorobenzene, 25° C.): ≥ 0.03 wt %
solubility (solute concentration completely dissolved) (toluene, 25° C.): ≥ 0.03 wt %
solubility (solute concentration completely dissolved) (toluene, 60° C.): ≥ 0.1 wt %
solubility (solute concentration completely dissolved) (toluene, 100° C.): ≥ 0.5 wt %

CCCCCCCCCc1cc(-c2ccc(-c3c4c(c(-c5ccc(-c6ccc(C#N)c(CCCCCCCCC)c6)s5)c5nsnc35)N=S=N4)s2)ccc1C#N [Compound (C15), 4,8-bis[5-(4-cyano-3-nonylphenyl)thiophene-2-yl]benzo[1,2-c:4,5-c′]bis[1,2,5]thiadiazole]
solubility (solute concentration completely dissolved) (chlorobenzene, 60° C.): ≥ 0.3 wt %
solubility (solute concentration completely dissolved) [1]: ≥ 0.1 wt %
solubility (solute concentration completely dissolved) (chloroform, 60° C.): ≥ 0.2 wt %
solubility (solute concentration completely dissolved) (ortho-dichlorobenzene, 60° C.): ≥ 0.3 wt %
solubility (solute concentration completely dissolved) (para-chlorotoluene, 80° C.): ≥ 0.3 wt %

CCCCCCCCCCCCc1cc(-c2ccc(-c3c4c(c(-c5ccc(-c6ccc(C(F)(F)F)c(CCCCCCCCCCCC)c6)s5)c5nsnc35)N=S=N4)s2)ccc1C(F)(F)F [Compound (C27), 4,8-bis[5-(3-dodecyl-4-(trifluoromethyl)phenyl)thiophene-2-yl]benzo[1,2-c:4,5-c′]bis[1,2,5]thiadiazole]
solubility (solute concentration completely dissolved) (1-methylnaphthalene, 60° C.): ≥ 0.3 wt %
solubility (solute concentration completely dissolved) (chloroform, 60° C.): ≥ 0.1 wt %
solubility (solute concentration completely dissolved) (mesitylene, 60° C.): ≥ 0.3 wt %
solubility (solute concentration completely dissolved) (ortho-dichlorobenzene, 60° C.): ≥ 0.3 wt %
solubility (solute concentration completely dissolved) (toluene, 60° C.): ≥ 0.3 wt %

CCCCCCCCCCCCc1ccc(-c2ccc(-c3c4c(c(-c5ccc(-c6ccc(CCCCCCCCCCCC)c(C(F)(F)F)c6)s5)c5nsnc35)N=S=N4)s2)cc1C(F)(F)F [Compound (C28), 4,8-bis[5-(4-dodecyl-3-(trifluoromethyl)phenyl)thiophene-2-yl]benzo[1,2-c:4,5-c′]bis[1,2,5]thiadiazole]
solubility (solute concentration completely dissolved) (1-methylnaphthalene, 100° C.): ≥ 0.3 wt %
solubility (solute concentration completely dissolved) (chloroform, 80° C.): ≥ 0.1 wt %
solubility (solute concentration completely dissolved) (mesitylene, 100° C.): ≥ 0.3 wt %
solubility (solute concentration completely dissolved) (ortho-dichlorobenzene, 80° C.): ≥ 0.3 wt %
solubility (solute concentration completely dissolved) (toluene, 100° C.): ≥ 0.3 wt %
